{"source": "patent US4350699A", "about": "“Pyridylalkoxysulfinyl derivatives of carbamate esters” (priority 1981, dated 1982)", "key": {"House Flies": {"test_system": "House Flies", "details": "for toxicity against house flies (in words): judged from LD50 of Table I; for House Flies LD50: topical on the notum, 1 μl acetone solution, 24 hours", "experimental": "(§1) Representative compounds of the pyridylalkoxysulfinyl derivatives of carbamate esters of the invention were tested for insecticidal activity against house flies and tobacco cutworms, and for mammalian toxicity against mice.\nIn the test for houseflies, stock 1% concentrated solutions of each of the test compounds and the commercially related carbamate ester insecticide, methomyl, were made in acetone, and such solutions were diluted with acetone to a concentration of 0.001-0.1%. House flies were treated topically on the notum by 1 μl of each of the diluted acetone solutions and percent mortality was counted 24 hours after application."}, "tobacco cutworms": {"test_system": "tobacco cutworms", "assay": "test against tobacco cutworms (3rd instar larvae), cabbage leaf dip, mortality counted 72 hours after the treatment", "type": "in vivo", "details": "for mortality at 100 ppm / mortality at 500 ppm: foliar, leaf dip, 72 hours", "experimental": "In the test against tobacco cutworms, aqueous solutions containing each toxicant at 100 and 500 ppm and an emulsifying agent, Shingramin, at 0.03% were prepared. The composition of Shingramin is understood to consist of 20% of polyoxyethylene dodecyl ether and polyoxyethylene alkylaryl ether, 12% ligninsulfonates and 68% inert solvents, by weight. A cabbage leaf was dipped into each of these solutions for 30 seconds, and put in a paper cup of 8 cm diameter. Ten tobacco cutworms (3rd instar larvae) were released onto the leaf. Two leaves were used for each dilution. Mortality of the insects was counted 72 hours after the treatment."}, "in vivo": {"assay": "in vivo", "details": "mouse, in vivo, po", "experimental": "as §1\n(§2) Mammalian toxicity was determined against Swiss white mice. The test compound was applied orally using propylene glycol as the carrier."}, "Mice": {"test_system": "Mice", "assay": "in vivo", "details": "compared with parent carbamate (methomyl or MIP)", "experimental": "as §1, §2"}}, "data": [{"smiles": "CSC(C)=NOC(=O)N(C)S(=O)OCc1ccccn1", "note": "(stereo not shown) [I, S-methyl N-[N'-methyl-N'-(2-pyridylmethoxy)-sulfinylcarbamoyloxy] thioacetimidate]", "values": [{"measurement": "toxicity against house flies (in words)", "setting": "House Flies", "value": "good toxicity"}, {"measurement": "House Flies LD50", "setting": "House Flies", "value": 7.0, "unit": "µg/g"}, {"measurement": "potency for tobacco cutworms (in words)", "setting": "tobacco cutworms; compared with methomyl", "value": "not as potent as methomyl"}, {"measurement": "mortality at 100 ppm", "setting": "tobacco cutworms", "value": 5, "unit": "%"}, {"measurement": "mortality at 500 ppm", "setting": "tobacco cutworms", "value": 65, "unit": "%"}, {"measurement": "LD50", "setting": "in vivo", "value": 85, "unit": "mg/kg"}, {"measurement": "mammalian toxicity (in words)", "setting": "Mice", "value": "low"}]}, {"smiles": "CSC(C)=NOC(=O)N(C)S(=O)OCc1cccnc1", "note": "(stereo not shown) [III, S-methyl N-[N'-methyl-N'-(3-pyridylmethoxy)sulfinylcarbamoyloxy]-thioacetimidate]", "values": [{"measurement": "toxicity against house flies (in words)", "setting": "House Flies", "value": "good toxicity"}, {"measurement": "House Flies LD50", "setting": "House Flies", "value": 5.8, "unit": "µg/g"}, {"measurement": "mortality at 100 ppm", "setting": "tobacco cutworms", "value": 85, "unit": "%"}, {"measurement": "mortality at 500 ppm", "setting": "tobacco cutworms", "value": 100, "unit": "%"}, {"measurement": "LD50", "setting": "in vivo", "value": 96, "unit": "mg/kg"}, {"measurement": "mammalian toxicity (in words)", "setting": "Mice", "value": "low"}]}, {"smiles": "CC(C)c1cccc(OC(=O)N(C)S(=O)OCc2ccccn2)c1", "note": "(stereo not shown) [IX, 3-Isopropylphenyl N-(2-pyridylmethoxysulfinyl)-N-methylcarbamate]", "values": [{"measurement": "toxicity against house flies (in words)", "setting": "House Flies", "value": "good toxicity"}, {"measurement": "House Flies LD50", "setting": "House Flies", "value": 111.5, "unit": "µg/g"}, {"measurement": "LD50", "setting": "in vivo", "value": 105, "unit": "mg/kg"}, {"measurement": "mammalian toxicity (in words)", "setting": "Mice", "value": "substantially lower mammalian toxicity"}]}, {"smiles": "CNC(=O)Oc1cccc(C(C)C)c1", "note": "[MIP, reference compound]", "values": [{"measurement": "mammalian toxicity (in words)", "setting": "Mice", "value": "much higher mammalian toxicity"}]}, {"smiles": "CNC(=O)ON=C(C)SC", "note": "[methomyl, reference compound]", "values": [{"measurement": "House Flies LD50", "setting": "House Flies", "value": 3.7, "unit": "µg/g"}, {"measurement": "mortality at 100 ppm", "setting": "tobacco cutworms", "value": 100, "unit": "%"}, {"measurement": "mortality at 500 ppm", "setting": "tobacco cutworms", "value": 100, "unit": "%"}, {"measurement": "mammalian toxicity (in words)", "setting": "Mice", "value": "much higher toxicity"}]}]}
